Tests used:
Human DYRK1B = molecular target: T1, Human DYRK1B (Homo sapiens, UniProt Q9Y463); experiment: DYRK1B Kinase TR-FRET (IMAP-Tb) Assay; assay type: biochemical; conditions: TR-FRET; ATP 70 μM; 37° C. for 60 minutes; averages of multiple runs; read-out: Enzyme IC50 DYRK1B
T1 construct: purchased Invitrogen PR8350B (former PV4649)
From the text: The kinase TR-FRET (IMAP-Tb) assay uses a fluorescence labeled substrate peptide in the kinase reaction. Upon phosphorylation by the kinase, phosphopeptide is produced, which will be detected by the binding solution provided in IMAP TR-FRET binding kit. After the completion of the kinase reaction, the reaction will be stopped by adding the binding solution containing terbium tracer. This tracer is immobilized on the surface of the IMAP beads, which also contain metal ions on the beads that bind to the phospho-groups of the products. Thus the phosphorylated product of the reaction can enter into close proximity to the tracer, producing resonance energy transfer. Due to the long lifetime of terbium (Tb) fluorescence the detection can be run in time resolved mode, which virtually eliminates fluorescence interference from assay components or compounds. […] IC50 is the amount of test compound that inhibits 50% of the activity of DYRK1B in this assay. […] 1. Human DYRK1B: from Invitrogen. Part # PR8350B (former PV4649) 2. Substrate Peptide: RRRFRPASPLRGPPK 3. IMAP TR-FRET IPP Explorer Kit: from Molecular Devices. Part # R8157 4. Kinase Assay Buffer (KAB): 10 mM HEPES pH 7.0, 50 mM NaCl, 5 mM MgCl2, 1 mM DTT, 1 mM NaVO4, 200 μg/mL BSA (0.02%) 5. Assay Plate: Remp polypropylene clear 384-well microplate. Cat#23490-102 6. Detection Plate: Costa black 384-well microplate. Cat #3710 Assay Procedure: This assay was performed as follows: 1. Transfer 1.5 μL of 20× compound solution to each well of an assay plate. 2. Add to each well 22.5 μL of KAB Buffer. 3. Add to each well 3 μL of the solution of DYRK1B and ATP. […] Add to each well 3 μL of the substrate peptide. […] Incubate the assay plates at 37° C. for 60 minutes. 6. Add 18 μL of Detection Solution (1:800 diluted Progress bead stock, 1:400 diluted Tb stock, 80% Buffer A, and 20% Buffer B) into each well of detection plates. 7. Transfer 6 μL of assay solution from the assay plate to the detection plate. 8. Shake detection plates for 30 minutes. 9. Read plates in Envision with wavelength set at excitation 340 nm for Tb, emission 490 nm, and […]. 10. Calculation: TR-FRET Signal=(Reading at […])×2000000

Human DYRK1A = molecular target: T2, Human DYRK1A (Homo sapiens, UniProt Q13627); experiment: DYRK1A Kinase TR-FRET (IMAP-Tb) Assay; assay type: biochemical; conditions: TR-FRET; ATP 70 μM; 37° C. for 60 minutes; averages of multiple runs; read-out: Enzyme IC50 DYRK1A
T2 construct: purchased Invitrogen PV3997
From the text: The kinase TR-FRET (IMAP-Tb) assay uses a fluorescence labeled substrate peptide in the kinase reaction. Upon phosphorylation by the kinase, phosphopeptide is produced, which will be detected by the binding solution provided in IMAP TR-FRET binding kit. After the completion of the kinase reaction, the reaction will be stopped by adding the binding solution containing terbium tracer. This tracer is immobilized on the surface of the IMAP beads, which also contain metal ions on the beads that bind to the phospho-groups of the products. Thus the phosphorylated product of the reaction can enter into close proximity to the tracer, producing resonance energy transfer. Due to the long lifetime of terbium (Tb) fluorescence the detection can be run in time resolved mode, which virtually eliminates fluorescence interference from assay components or compounds.
The TR-FRET signal measurement from this assay, given as an IC50 measurement, is a measure of a test compound's ability to interfere with the phosphorylation of the peptide substrate, that is it inhibits the phosphorylation of the substrate peptide by DYRK1A, and is thus a measure of the test compound's ability to inhibit the activity of DYRK1A.
1. Human DYRK1A: from Invitrogen. Part # PV3997
2. Substrate Peptide: […]
3. IMAP TR-FRET IPP Explorer Kit: from Molecular Devices. Part # R8157 4. Kinase Assay Buffer (KAB): 10 mM HEPES pH 7.0, 50 mM NaCl, 5 mM MgCl2, 1 mM DTT, 1 mM NaVO4, 200 μg/mL BSA (0.02%) 5. Assay Plate: Remp polypropylene clear 384-well microplate. […] Detection Plate: Costa black 384-well microplate. […] Transfer 1.5 μL of 20× compound solution to each well of an assay plate. 2. Add to each well 22.5 μL of KAB Buffer. 3. Add to each well 3 μL of the solution of DYRK1A and ATP. […] Add to each well 3 μL of the substrate peptide. The assay concentration is 1.0 μM 5. Incubate the assay plates at 37° C. for 60 minutes. 6. Add 18 μL of Detection Solution (1:800 diluted Progress bead stock, 1:400 diluted Tb stock, 80% Buffer A, and 20% Buffer B) into each well of detection plates. 7. Transfer 6 μL of assay solution from the assay plate to the detection plate. 8. Shake detection plates for 30 minutes. 9. Read plates in Envision with wavelength set at excitation 340 nm for Tb, emission 490 nm, and […].

[1] = tested on: SW620 human colon cancer cells; experiment: SW620 Cell Viability Assay (CellTiter-Glo); assay type: cell-based; conditions: SW-620, 96 h, 4 days incubation, read-out: Cellular EC50 SW620
Description: 1. Cell Plate Preparation: SW620 human colon cancer cells (known to express DYRK1B), obtained from ATCC, were seeded into 96-well plates at […] in 50 μL of media. • Harvested the required number of cells (counts & viability determined by Guava Viacount). • Centrifuge cells to pellet and removed supernant. • Resuspended in growth media (50 μL/well) & pipetted thoroughly to break up clumps. • Setup for ˜100 wells/plate, therefore, VT=5 mL/plate @ 1.2×10^5 cells/mL. 1A. Some cells (S-) were allowed to attach for 24 hrs, serum starved for 48 hrs, and then followed with treatments of test compound.
Test Compound solution was prepared in regular corresponding media supplemented with serum
2. Test Compound Preparation: Test compounds were solubilized in either DMSO or media and prepared at various stock concentrations. • All compounds were incubated at 37° C. for 30 minutes and vortexed. • (5 mM stocks of test compound were prepared for non-soluble drugs)
3. Test Compound Plate Preparation:
• The 10 mM test compound stock was diluted to a concentration of 100× the final Cmax concentration. • Then the test compound stock is diluted 50-fold in media and/or second test compound for a final Cmax concentration in the test compound plate. • The Cmax in the test compound plate (2% DMSO) is 2-fold higher than the final Cmax in the cell plate (60 uL titrations were 1:3). 4. Viability Assay: This assay was performed as follows: • Transfer 50 μL of test compound solution per well from the test compound plate onto the cell plate prepared in Step #1. • Mix the plate with treated cells by pipetting up and down three times with 200 μL multi-channel pipet. • Incubate the cells in 5% CO2 incubator @ 37° C. for 4 days. • Run the CellTiter-Glo™ Luminescent Cell Viability Assay. The results of this assay, given as EC50 values, indicate the concentration of test compound that inhibits tumor cell proliferation by 50%.

T1 sequence (Q9Y463 whole entry): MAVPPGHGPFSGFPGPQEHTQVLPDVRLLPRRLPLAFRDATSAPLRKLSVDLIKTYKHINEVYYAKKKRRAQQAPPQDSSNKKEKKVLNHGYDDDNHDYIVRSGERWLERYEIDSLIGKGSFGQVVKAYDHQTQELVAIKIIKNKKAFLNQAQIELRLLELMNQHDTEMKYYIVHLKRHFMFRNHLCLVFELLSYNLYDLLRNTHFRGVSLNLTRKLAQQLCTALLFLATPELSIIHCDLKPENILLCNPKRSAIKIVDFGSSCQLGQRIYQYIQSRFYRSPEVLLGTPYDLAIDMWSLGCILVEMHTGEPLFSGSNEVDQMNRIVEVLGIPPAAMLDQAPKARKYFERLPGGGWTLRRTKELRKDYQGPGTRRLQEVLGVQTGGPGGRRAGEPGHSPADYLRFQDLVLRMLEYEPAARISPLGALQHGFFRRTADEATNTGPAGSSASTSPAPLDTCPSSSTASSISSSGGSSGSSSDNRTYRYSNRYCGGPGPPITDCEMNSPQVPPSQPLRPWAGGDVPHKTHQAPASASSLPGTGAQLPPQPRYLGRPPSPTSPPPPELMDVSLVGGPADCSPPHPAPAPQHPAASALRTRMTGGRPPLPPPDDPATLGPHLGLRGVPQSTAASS

SMILES	IC50 (Human DYRK1B)	IC50 (Human DYRK1A)	EC50 [1]
COCCOc1cc2cc(C(=O)Nc3cc(C(=O)NC(CCN)c4ccccc4)ccc3C)c(=O)[nH]c2cc1OC (stereo not drawn) [Example 38, 7-Methoxy-6-(2-methoxy-ethoxy)-2-oxo-1,2-dihydro-quinoline-3-carboxylic acid [5-(3-amino-1-phenyl-propylcarbamoyl)-2-methyl-phenyl]-amide]	44.8 nM	34.7 nM	2760 nM
COC(=O)c1ccc(C)c(NC(=O)c2cc3cc(OCCN4CCOCC4)c(OC)cc3[nH]c2=O)c1 [Example 39, 3-{[7-Methoxy-6-(2-morpholin-4-yl-ethoxy)-2-oxo-1,2-dihydro-quinoline-3-carbonyl]-amino}-4-methyl-benzoic acid methyl ester]	190 nM	150 nM	3410 nM
COc1cc2cc(C(=O)Nc3cc(C(=O)NCc4ccccc4)ccc3C)c(=O)[nH]c2cc1OC [Example 42, 6,7-Dimethoxy-2-oxo-1,2-dihydro-quinoline-3-carboxylic acid (5-benzylcarbamoyl-2-methyl-phenyl)-amide]	320 nM	226 nM	> 10000 nM
COc1cc2[nH]c(=O)c(C(=O)Nc3cc(C(=O)NCc4cccc(Cl)c4)ccc3C)cc2cc1OCCN1CCOCC1 [Example 43, 7-Methoxy-6-(2-morpholin-4-yl-ethoxy)-2-oxo-1,2-dihydro-quinoline-3-carboxylic acid [5-(3-chloro-benzylcarbamoyl)-2-methyl-phenyl]-amide]	178 nM	6 nM	306 nM
COc1cc2[nH]c(=O)c(C(=O)Nc3cc(C(=O)NC(CCN)c4ccccc4)ccc3C)cc2cc1OCCN1CCOCC1 (stereo not drawn) [Example 44, 7-Methoxy-6-(2-morpholin-4-yl-ethoxy)-2-oxo-1,2-dihydro-quinoline-3-carboxylic acid [5-(3-amino-1-phenyl-propylcarbamoyl)-2-methyl-phenyl]-amide]	63 nM	33.4 nM	> 3000 nM
COCCOc1cc2cc(C(=O)Nc3cc(C(=O)NCc4cccc(Cl)c4)ccc3C)c(=O)[nH]c2cc1OC [Example 52, 7-Methoxy-6-(2-methoxy-ethoxy)-2-oxo-1,2-dihydro-quinoline-3-carboxylic acid [5-(3-chloro-benzylcarbamoyl)-2-methyl-phenyl]-amide]	181 nM	118 nM	780 nM
COCCOc1cc2cc(C(=O)Nc3cc(C(=O)OC)ccc3Cl)c(=O)[nH]c2cc1OC [Example 53, Methyl 4-chloro-3-(7-methoxy-6-(2-methoxyethoxy)-2-oxo-1,2-dihydroquinoline-3-carboxamido)benzoate]	115 nM	245 nM	> 10000 nM
COCCOc1cc2cc(C(=O)Nc3cc(C(=O)NCc4cccc(Cl)c4)ccc3Cl)c(=O)[nH]c2cc1OC [Example 55, N-(2-Chloro-5-(3-chlorobenzylcarbamoyl)phenyl)-7-methoxy-6-(2-methoxyethoxy)-2-oxo-1,2-dihydroquinoline-3-carboxamide]	37.3 nM	48.9 nM	129 nM
COc1cc2cc(C(=O)Nc3cc(C(=O)N[C@H](CO)c4ccccc4)ccc3C)c(=O)[nH]c2cc1OC [Example 57, (S)-N-(5-(2-Hydroxy-1-phenylethylcarbamoyl)-2-methylphenyl)-6,7-dimethoxy-2-oxo-1,2-dihydroquinoline-3-carboxamide]	883 nM	186 nM	6500 nM
COCCOc1cc2cc(C(=O)Nc3cc(C(=O)NC(CN)c4cccc(Cl)c4)ccc3Cl)c(=O)[nH]c2cc1OC (stereo not drawn) [Example 60, N-(5-(2-Amino-1-(3-chlorophenyl)ethylcarbamoyl)-2-chlorophenyl)-7-methoxy-6-(2-methoxyethoxy)-2-oxo-1,2-dihydroquinoline-3-carboxamide]	21.7 nM	14.3 nM	200 nM
COCCOc1cc2cc(C(=O)Nc3cc(C(=O)NC(CCN)c4ccccc4)ccc3Cl)c(=O)[nH]c2cc1OC (stereo not drawn) [Example 61, N-(5-(3-Amino-1-phenylpropylcarbamoyl)-2-chlorophenyl)-7-methoxy-6-(2-methoxyethoxy)-2-oxo-1,2-dihydroquinoline-3-carboxamide]	11.5 nM	15.7 nM	470 nM
COCCOc1cc2cc(C(=O)Nc3cc(C(=O)NC(CN)c4ccccc4)ccc3Cl)c(=O)[nH]c2cc1OC (stereo not drawn) [Example 62, N-(5-(2-Amino-1-phenylethylcarbamoyl)-2-chlorophenyl)-7-methoxy-6-(2-methoxyethoxy)-2-oxo-1,2-dihydroquinoline-3-carboxamide]	29.1 nM	11.4 nM	440 nM
COCCOc1cc2cc(C(=O)Nc3cc(C(=O)N[C@H](CCN)c4ccccc4)ccc3Cl)c(=O)[nH]c2cc1OC [Example 63, (R)-N-(5-(3-Amino-1-phenylpropylcarbamoyl)-2-chlorophenyl)-7-methoxy-6-(2-methoxyethoxy)-2-oxo-1,2-dihydroquinoline-3-carboxamide]	8 nM	5 nM	640 nM

Reference: US20120184548A1, “CARBOXYLIC ACID ARYL AMIDES” (priority 2011, published 2012)
